In ChEMBL document CHEMBL1157048, “Synthesis and in vitro activity of limonene derivatives against Leishmania and Trypanosoma” (Eur J Med Chem, 2010):
pIC50: −log10 of the molar value.

Key:
[1] = tested on: Leishmania braziliensis; assay: Antileishmanial activity against Leishmania (Viannia) braziliensis promastigotes; type: functional, organism-based
[2] = tested on: Leishmania amazonensis; assay: Antileishmanial activity against Leishmania amazonensis promastigotes after 48 hrs; type: functional, organism-based
[3] = tested on: LLC-MK2; assay: Cytotoxicity against rhesus monkey LLC-MK2 cells after 48 hrs; type: cell-based; settings: Macaca mulatta, LLC-MK2, 48 h
[4] = Selectivity index, ratio of IC50 for rhesus monkey LLC-MK2 cells to IC50 for Leishmania amazonensis promastigotes; type: toxicity, cell-based; settings: read-out: Ratio IC50
[5] = tested on: Trypanosoma cruzi; assay: Antitrypanosomal activity against Trypanosoma cruzi Tulahuen 2 assessed as inhibition of epimastigotes growth at 50 uM; type: functional; settings: read-out: GI
[6] = tested on: Trypanosoma cruzi; assay: Antitrypanosomal activity against Trypanosoma cruzi Tulahuen 2 assessed as inhibition of epimastigotes growth; type: functional, organism-based
[7] = Selectivity index, ratio of IC50 for rhesus monkey LLC-MK2 cells to IC50 for Leishmania (Viannia) braziliensis promastigotes; type: toxicity, cell-based; settings: read-out: Ratio IC50
[8] = Selectivity index, ratio of IC50 for rhesus monkey LLC-MK2 cells to IC50 for Trypanosoma cruzi Tulahuen 2 epimastigotes; type: toxicity, cell-based; settings: read-out: Ratio IC50
[9] = tested on: Leishmania sp.; assay: Antileishmanial activity against Leishmania sp. by MTT assay; type: functional, organism-based

SMILES | pIC50 [1] | inhibition of growth at 50 µM [5] [%] | pIC50 [6] | also measured
CC1=CC[C@H](C(C)CCNc2ccccn2)CC1 (some centres undefined) | 4.57 |  |  | 
CCCNCCC(C)[C@H]1CC=C(C)CC1 (mixture of isomers) | 4.76 | 21 | < 4.30 | pIC50 [2]: 4.27; pIC50 [3]: 3.72; selectivity ratio [4]: 3.6; selectivity ratio [7]: 10
CC1=CC[C@H](C(C)CCNC(C)C)CC1 (mixture of isomers) | 3.60 |  |  | 
CC1=CC[C@H](C(C)CCNCc2ccccc2)CC1 (mixture of isomers) | 3.59 | 53.5 | 4.30 | 
CC1=CC[C@H](C(C)CCN2CCOCC2)CC1 (mixture of isomers) | 2.99 | 20.7 | < 4.30 | 
CC1=CC[C@H](C(C)CCN2CCNCC2)CC1 (mixture of isomers) | 3.57 | 82.4 | 4.72 | 
CCCN(CCC(C)[C@H]1CC=C(C)CC1)S(=O)(=O)c1ccc(C)cc1 (mixture of isomers) | 4.92 |  |  | pIC50 [2]: 3.71; pIC50 [3]: < 2.99; selectivity ratio [4]: > 5.2; selectivity ratio [7]: 10
CC1=CC[C@H](C(C)CCNc2ccccc2)CC1 (mixture of isomers) | 4.94 | 70.5 | 4.53 | pIC50 [2]: 4.05; pIC50 [3]: 3.51; selectivity ratio [4]: 3.5; selectivity ratio [8]: 10.4; selectivity ratio [7]: 10
CC1=CC[C@H](C(C)CCNc2ccc(Cl)cc2)CC1 (mixture of isomers) | 4.23 |  |  | 
COc1ccc(NCCC(C)[C@H]2CC=C(C)CC2)cc1 (mixture of isomers) | 4.24 |  |  | 
CC1=CC[C@H](C(C)CCNc2ccc(C)cc2)CC1 (mixture of isomers) | 4.55 |  |  | 
CC1=CC[C@H](C(C)CCNCc2ccco2)CC1 (mixture of isomers) | 4.45 | 51.4 | 4.30 | 
CC1=CC[C@H](C(C)CCNc2cccc(C(F)(F)F)c2)CC1 (mixture of isomers) | 4.07 |  |  | 
CC1=CC[C@H](C(C)CCN(C)c2ccccc2)CC1 (mixture of isomers) | 4.26 | 0 | < 4.30 | 
CC1=CC[C@H](C(C)CCNCCO)CC1 (mixture of isomers) | 4.63 | 41.8 | < 4.30 | pIC50 [2]: 3.76; pIC50 [3]: 3.23; selectivity ratio [4]: 3.4; selectivity ratio [7]: 10
C=C(C)[C@H]1CC=C(C)CC1 [D-LIMONENE] | 3.06 | 0 | < 4.30 | pIC50 [9]: 3.73
CC1CS(=O)(=O)CCN1/N=C/c1ccc([N+](=O)[O-])o1 (centres undefined) [NIFURTIMOX] |  | 100 |  | 
N=C(N)c1ccc(OCCCCCOc2ccc(C(=N)N)cc2)cc1 [PENTAMIDINE] | 4.31 |  |  | 
